This note sets out measurements from US9006221B2, “Method of modulating ship activity” (H. Lee Moffitt Cancer Center and Reserach Institute, Inc., priority 2008, dated 2015).

In the assay the target is T1, SHIP2 (Homo sapiens, UniProt O15357).
T1 sequence (O15357 1-1258): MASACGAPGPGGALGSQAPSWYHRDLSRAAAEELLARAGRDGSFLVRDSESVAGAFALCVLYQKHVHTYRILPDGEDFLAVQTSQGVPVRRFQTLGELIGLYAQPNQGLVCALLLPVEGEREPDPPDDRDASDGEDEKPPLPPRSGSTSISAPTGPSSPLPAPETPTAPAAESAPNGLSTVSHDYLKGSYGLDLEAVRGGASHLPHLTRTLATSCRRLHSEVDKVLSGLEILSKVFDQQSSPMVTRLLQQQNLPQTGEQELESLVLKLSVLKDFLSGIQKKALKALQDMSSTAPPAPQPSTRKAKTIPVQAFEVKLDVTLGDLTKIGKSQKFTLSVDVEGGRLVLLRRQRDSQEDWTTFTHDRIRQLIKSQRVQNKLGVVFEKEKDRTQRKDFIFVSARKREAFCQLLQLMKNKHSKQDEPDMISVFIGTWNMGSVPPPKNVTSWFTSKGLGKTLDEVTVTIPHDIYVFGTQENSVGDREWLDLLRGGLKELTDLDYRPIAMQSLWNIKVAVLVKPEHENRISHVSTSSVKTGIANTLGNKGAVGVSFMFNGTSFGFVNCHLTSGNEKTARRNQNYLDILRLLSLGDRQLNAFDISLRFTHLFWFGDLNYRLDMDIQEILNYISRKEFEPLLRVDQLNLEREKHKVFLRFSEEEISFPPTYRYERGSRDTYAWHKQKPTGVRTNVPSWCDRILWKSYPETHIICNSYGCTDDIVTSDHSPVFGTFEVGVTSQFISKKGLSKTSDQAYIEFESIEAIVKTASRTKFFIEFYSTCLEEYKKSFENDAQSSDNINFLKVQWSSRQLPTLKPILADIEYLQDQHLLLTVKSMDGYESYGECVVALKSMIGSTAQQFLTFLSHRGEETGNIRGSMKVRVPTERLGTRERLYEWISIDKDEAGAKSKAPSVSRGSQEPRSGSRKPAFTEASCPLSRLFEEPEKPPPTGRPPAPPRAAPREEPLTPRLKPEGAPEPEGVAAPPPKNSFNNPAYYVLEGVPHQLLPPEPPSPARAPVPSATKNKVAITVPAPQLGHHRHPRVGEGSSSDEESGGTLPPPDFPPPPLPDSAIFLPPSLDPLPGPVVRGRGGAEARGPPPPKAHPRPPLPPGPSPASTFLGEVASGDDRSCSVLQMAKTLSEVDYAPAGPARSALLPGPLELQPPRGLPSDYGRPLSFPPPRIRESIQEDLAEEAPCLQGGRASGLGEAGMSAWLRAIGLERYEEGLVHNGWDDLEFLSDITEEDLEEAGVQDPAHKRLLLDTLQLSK
Nature of the assay: FP assay of SHIP2 enzymatic activity. The assay is classed as biochemical. An excerpt: No Compound—FP assay conducted with purified SHIP1 or SHIP2 as indicated in the absence of inhibitor. No Enzyme—FP assay conducted in SHIP buffer and fluorescent substrate in the absence of enzyme.
Thus far, none of the inhibitors have been identified as selective for SHIP1 over SHIP2. The majority of SHIP inhibitors identified show selectivity for 5′ inositol phosphatases and thus might be used to target SHIP1 or SHIP2 activity.
Assay of SHIP1 enzymatic activity: A fluorescent polarization (FP) assay that detects the 5′-inositol phosphatase activity of SHIP1 was developed based on a previously established protocol [Drees B E, et al., Comb Chem High Throughput Screen (2003) 6(4):321-330] and was obtained from Echelon Biosciences (Salt Lake City, USA). Modifications of the protocol included the application of SHIP1 in the assay and an increase in the concentration of MgCl2 to […] to maximize the activity of SHIP1 in this assay. Each enzymatic reaction was performed in a 96 well working plate and added in the following order and concentration: Recombinant SHIP1 (0.1 μg) in PBS+20 mM MgCl2, 100 μM of each individual compound from the NCI Diversity Set and then PI(3,4,5)P3 substrate diluted 1:10 in H2O. The enzymatic reaction was incubated for 30 min at room temperature. The detector, reaction mixture and probe were then combined according to the SHIP2 protocol. […]

Take `OC(c1cc(-c2ccccc2)nc2c1ccc1ccccc12)C1CCCCN1` (centres unmarked) [NSC13480, (2-phenylbenzo[h]quinolin-4-yl)-piperidin-2-ylmethanol]: the “inhibition of SHIP2 enzymatic activity” value is “inhibit both SHIP1 and SHIP2 enzymatic activity”. The same measure for `CC(C)CCC[C@@H](C)[C@H]1CC[C@H]2[C@@H]3CC[C@H]4C[C@H](N)CC[C@]4(C)[C@H]3CC[C@]12C` [NSC23922, (3R,5S,8R,9S,10S,13R,14S,17R)-10,13-dimethyl-17-[(2R)-6-methylheptan-2-yl]-2,3,4,5,6,7,8,9,11,12,14,15,16,17-tetradecahydro-1H-cyclopenta[a]phenanthren-3-amine]: “inhibit both SHIP1 and SHIP2 enzymatic activity”.
